Results from patent US10626115B2, “Fused pyrimidinone and triazinone derivatives containing bridged nitrogen, their process of preparation and their therapeutic uses as antifungal and/or antiparasitic agents” (UNIVERSITE DE NANTES, priority 2015, dated 2020).
Values after ≈ are worked out from the molar mass of the structure shown. Blank lines part the entries; values can stand above or below the compound they belong to.

Key:
[1] = system: promastigote stage of a Leishmania mexicana strain; experiment: Anti-Trypanosomatidae activity, promastigote stage, spectrofluorimetric microdilution; format: cell-based; settings: for IC50: Leishmania mexicana, promastigote stage, 50% of control growth, read-out: L. mexicana (IC50 μM)
Method: Compounds were evaluated on the promastigote stage of a Leishmania mexicana strain using a spectrofluorimetric microdilution method. Inhibitory concentration 50 (IC50) was the concentration that inhibited 50% of the control growth.

[2] = system: A. fumigatus itraconazole-resistant strain ASFU77 (erg11 mutation); experiment: Antifungal susceptibility, spectrofluorimetric microdilution, ASFU77; format: cell-based, Aspergillus fumigatus; settings: for MIC: Aspergillus fumigatus, read-out: MIC values ASFU77
Method: (§1) Eleven strains of A. fumigatus with various itraconazole susceptibility were used: • Five susceptible strains: ASFU7, ASFU35A, ASFU38A, ASFU76 and ASFU78. • Six itraconazole-resistant strains: ASFU77 (erg11 mutation), ASFU13, ASFU17, ASFU19, ASFU20, ASFU23.
(§2) Antifungal susceptibility was evaluated with a spectrofluorimetric microdilution method. MIC was the concentration that was able to inhibit 80% of fluorescence measured in the control wells.

[3] = system: A. fumigatus susceptible strain ASFU35A; experiment: Antifungal susceptibility, spectrofluorimetric microdilution, ASFU35A; format: cell-based, Aspergillus fumigatus; settings: Aspergillus fumigatus, read-out: MIC values ASFU35A
Method: as §1, §2

[4] = system: A. fumigatus susceptible strain ASFU76; experiment: Antifungal susceptibility, spectrofluorimetric microdilution, ASFU76; format: cell-based, Aspergillus fumigatus; settings: Aspergillus fumigatus, read-out: MIC values ASFU76
Method: as §1, §2

[5] = system: A. fumigatus susceptible strain ASFU78; experiment: Antifungal susceptibility, spectrofluorimetric microdilution, ASFU78; format: cell-based, Aspergillus fumigatus; settings: Aspergillus fumigatus, read-out: MIC values ASFU78
Method: as §1, §2

[6] = system: A. fumigatus susceptible strain ASFU38A; experiment: Antifungal susceptibility, spectrofluorimetric microdilution, ASFU38A; format: cell-based, Aspergillus fumigatus; settings: Aspergillus fumigatus, read-out: MIC values ASFU38A
Method: as §1, §2

[7] = system: fluconazole-susceptible C. albicans strain: CAAL93; experiment: Antifungal susceptibility, spectrofluorimetric microdilution, CAAL93; format: cell-based; settings: Candida albicans, read-out: MIC values CAAL93
Method: (§3) Eight strains of Candida spp. with various azoles-susceptibilities were used: • One fluconazole-susceptible C. albicans strain: CAAL93 • Two fluconazole-resistant C. albicans strains: CAAL111 (efflux pump) and CAAL117 (erg11 mutations+voriconazole-resistant) • five fluconazole-resistant Candida non albicans strains: C. krusei (CAKR7, CAKR8), C. glabrata (CAGL2), C. parapsilosis s.l. (CAPA1, CAPA2).
(§4) Antifungal susceptibility was evaluated with a spectrofluorimetric microdilution method.

[8] = system: A. fumigatus susceptible strain ASFU7; experiment: Antifungal susceptibility, spectrofluorimetric microdilution, ASFU7; format: cell-based, Aspergillus fumigatus; settings: Aspergillus fumigatus, read-out: MIC values ASFU7
Method: as §1, §2

[9] = system: fluconazole-resistant C. albicans strain CAAL117 (erg11 mutations+voriconazole-resistant); experiment: microbe, parasite or virus in culture; format: cell-based; settings: for MIC: Candida albicans, read-out: MIC values CAAL117; for fold more active than voriconazole against CAAL117: compared with voriconazole
Method: as §3, §4

[10] = system: fluconazole-resistant C. krusei (CAKR7); experiment: microbe, parasite or virus in culture; format: cell-based; settings: Pichia kudriavzevii, read-out: MIC values CAKR7
Method: as §3, §4

[11] = system: fluconazole-resistant C. glabrata (CAGL2); experiment: microbe, parasite or virus in culture; format: cell-based; settings: Nakaseomyces glabratus, read-out: MIC values CAGL2
Method: as §3, §4

[12] = system: fluconazole-resistant C. krusei (CAKR8); experiment: microbe, parasite or virus in culture; format: cell-based; settings: Pichia kudriavzevii, read-out: MIC values CAKR8
Method: as §3, §4

[13] = system: A. fumigatus itraconazole-resistant strain ASFU23; experiment: Antifungal susceptibility, spectrofluorimetric microdilution, ASFU23; format: cell-based, Aspergillus fumigatus
Method: as §1, §2

[14] = system: A. fumigatus itraconazole-resistant strain ASFU13; experiment: Antifungal susceptibility, spectrofluorimetric microdilution, ASFU13; format: cell-based, Aspergillus fumigatus
Method: as §1, §2

[15] = system: A. fumigatus itraconazole-resistant strain ASFU20; experiment: Antifungal susceptibility, spectrofluorimetric microdilution, ASFU20; format: cell-based, Aspergillus fumigatus
Method: as §1, §2

[16] = system: A. fumigatus itraconazole-resistant strain ASFU19; experiment: Antifungal susceptibility, spectrofluorimetric microdilution, ASFU19; format: cell-based, Aspergillus fumigatus; settings: Aspergillus fumigatus, read-out: MIC values ASFU19
Method: as §1, §2

[17] = system: fluconazole-resistant C. albicans strain CAAL111 (efflux pump); experiment: microbe, parasite or virus in culture; format: cell-based; settings: Candida albicans, read-out: MIC values CAAL111
Method: as §3, §4

[18] = system: A. fumigatus itraconazole-resistant strain ASFU17; experiment: Antifungal susceptibility, spectrofluorimetric microdilution, ASFU17; format: cell-based, Aspergillus fumigatus; settings: Aspergillus fumigatus, read-out: MIC values ASFU17
Method: as §1, §2

melting point: 196 to 197 °C
Structure (SMILES): C[C@@H](n1ccc2nc(-c3ccc(C(F)(F)F)cc3)cn2c1=O)[C@](O)(Cn1cncn1)c1ccc(F)cc1F [Compound 33, 6-[(1R,2R)-2-(2,4-Difluorophenyl)-2-hydroxy-1-methyl-3-(1H-1,2,4-triazol-1-yl)propyl]-2-[(4-trifluoromethyl)phenyl]imidazo[1,2-c]pyrimidin-5-one]

Structure (SMILES): Cc1cn2c(=O)n([C@H](C)[C@](O)(Cn3cncn3)c3ccc(F)cc3F)ccc2n1 [Compound 28, 6-[(1R,2R)-2-(2,4-Difluorophenyl)-2-hydroxy-1-methyl-3-(1H-1,2,4-triazol-1-yl)propyl]-2-methylimidazo[1,2-c]pyrimidin-5-one]
melting point: 103 to 104 °C
IC50 [1]: > 100 µM

Structure (SMILES): C[C@@H](n1ccc2nc(-c3ccc(Cl)cc3)cn2c1=O)[C@](O)(Cn1cncn1)c1ccc(F)cc1F [Compound 31, 6-[(1R,2R)-2-(2,4-Difluorophenyl)-2-hydroxy-1-methyl-3-(1H-1,2,4-triazol-1-yl)propyl]-2-(4-chlorophenyl)imidazo[1,2-c]pyrimidin-5-one]
melting point: 158 to 159 °C
MIC values against ITRA-resistant isolate carrying M220T mutation (ASFU77), in words [2]: in the micromolar range
MIC [2]: 5.99 ± 0.33 µg/mL (≈ 12.1 µM)
MIC [3]: 5.81 ± 0.5 µg/mL (≈ 11.7 µM)
MIC [4]: 5.7 ± 0.51 µg/mL (≈ 11.5 µM)
MIC [5]: 5.72 ± 0.39 µg/mL (≈ 11.5 µM)
MIC [6]: 5.59 ± 0.15 µg/mL (≈ 11.2 µM)
MIC [7]: < 1 ng/mL
MIC [8]: 5.04 µg/mL (≈ 10.1 µM)

Structure (SMILES): C[C@@H](n1ncc2cc(-c3ccc(C#N)cc3)cn2c1=O)[C@](O)(Cn1cncn1)c1ccc(F)cc1F [Compound 49, 4-{3-[(1R,2R)-2-(2,4-Difluorophenyl)-2-hydroxy-1-methyl-3-(1,2,4-triazol-1-yl)propyl]-4-oxo-3,4-dihydro-pyrrolo[1,2-d][1,2,4]triazin-7-yl}benzonitrile]
melting point: 201 to 202 °C
MIC [9]: 0.016 ± 0.001 µg/mL (≈ 0.0328 µM)
fold more active than voriconazole against CAAL117 [9]: 100 fold
MIC [10]: 0.058 ± 0.009 µg/mL (≈ 0.119 µM)
MIC [11]: 0.025 ± 0.01 µg/mL (≈ 0.0513 µM)
MIC [12]: 0.101 ± 0.014 µg/mL (≈ 0.207 µM)
MIC [7]: < 48 ng/mL

Structure (SMILES): C[C@@H](n1ccc2nccn2c1=O)[C@](O)(Cn1cncn1)c1ccc(F)cc1F [Compound 27, 6-[(1R,2R)-2-(2,4-Difluorophenyl)-2-hydroxy-1-methyl-3-(1H-1,2,4-triazol-1-yl)propyl]imidazo[1,2-c]pyrimidin-5-one]
melting point: 156 to 157 °C
MIC values against ITRA-resistant isolate carrying M220T mutation (ASFU77), in words [2]: in the micromolar range
MIC [2]: 6.47 ± 0.03 µg/mL (≈ 16.7 µM)
MIC [3]: 6.96 ± 1.49 µg/mL (≈ 18 µM)
MIC [4]: 6.76 ± 0.1 µg/mL (≈ 17.5 µM)
MIC [5]: 6.03 ± 0.95 µg/mL (≈ 15.6 µM)
IC50 [1]: > 100 µM
MIC [6]: 23 ± 21.1 µg/mL (≈ 59.6 µM)
MIC [7]: 14 ± 1 ng/mL (≈ 0.0362 µM)
MIC [8]: 7.29 ± 0.22 µg/mL (≈ 18.9 µM)

Structure (SMILES): C[C@@H](n1ccc2nc(-c3ccc(F)cc3)cn2c1=O)[C@](O)(Cn1cncn1)c1ccc(F)cc1F [Compound 30, 6-[(1R,2R)-2-(2,4-Difluorophenyl)-2-hydroxy-1-methyl-3-(1H-1,2,4-triazol-1-yl)propyl]-2-(4-fluorophenyl)imidazo[1,2-c]pyrimidin-5-one]
melting point: 114 to 115 °C
effectiveness against the promastigote stage of L. Mexicana, in words [1]: effective
IC50 [1]: 8.1 ± 1.6 µM

Structure (SMILES): C[C@@H](n1ncc2cc(-c3ccc(Cl)cc3)cn2c1=O)[C@](O)(Cn1cncn1)c1ccc(F)cc1F [Compound 48, 7-(4-Chlorophenyl)-3-[(1R,2R)-2-(2,4-difluorophenyl)-2-hydroxy-1-methyl-3-(1,2,4-triazol-1-yl)propyl]-3H-pyrrolo[1,2-d][1,2,4]triazin-4-one]
activity against ITRA-resistant isolate ASFU23, in words [13]: active
MIC ([13]; Aspergillus fumigatus, read-out: MIC values ASFU23): 2.48 µg/mL (≈ 4.99 µM)
melting point: 204 to 205 °C
MIC values against ITRA-resistant isolate carrying M220T mutation (ASFU77), in words [2]: in the micromolar range
MIC [2]: 9.27 ± 1.05 µg/mL (≈ 18.7 µM)
MIC [3]: 6.11 ± 0.85 µg/mL (≈ 12.3 µM)
MIC [4]: 6.21 ± 0.18 µg/mL (≈ 12.5 µM)
activity against ITRA-resistant isolate ASFU13, in words [14]: active
MIC ([14]; Aspergillus fumigatus, read-out: MIC values ASFU13): 2.53 µg/mL (≈ 5.09 µM)
MIC [5]: 6.26 ± 0.73 µg/mL (≈ 12.6 µM)
activity against ITRA-resistant isolate ASFU20, in words [15]: active
MIC ([15]; Aspergillus fumigatus, read-out: MIC values ASFU20): 2.51 µg/mL (≈ 5.05 µM)
MIC [16]: > 49 µg/mL
MIC [9]: 0.014 ± 0.001 µg/mL (≈ 0.0282 µM)
fold more active than voriconazole against CAAL117 [9]: 100 fold
MIC [10]: 0.019 ± 0.001 µg/mL (≈ 0.0382 µM)
MIC [11]: 0.061 ± 0.008 µg/mL (≈ 0.123 µM)
MIC [17]: 0.018 ± 0.005 µg/mL (≈ 0.0362 µM)
MIC [12]: 0.079 µg/mL (≈ 0.159 µM)
MIC [6]: 6.64 ± 1.1 µg/mL (≈ 13.4 µM)
MIC [7]: < 1 ng/mL
MIC [8]: 6.07 ± 0.05 µg/mL (≈ 12.2 µM)
MIC [18]: > 49 µg/mL

melting point: 142 to 143 °C
Structure (SMILES): C[C@@H](n1ncc2cc(Br)cn2c1=O)[C@](O)(Cn1cncn1)c1ccc(F)cc1F [Compound 45, 7-Bromo-3-[(1R,2R)-2-(2,4-difluorophenyl)-2-hydroxy-1-methyl-3-(1,2,4-triazol-1-yl)propyl]-3H-pyrrolo[1,2-d][1,2,4]triazin-4-one]

melting point: 175 to 176 °C
Structure (SMILES): C[C@@H](n1ccc2nc(-c3nccs3)cn2c1=O)[C@](O)(Cn1cncn1)c1ccc(F)cc1F [Compound 36, 6-[(1R,2R)-2-(2,4-Difluorophenyl)-2-hydroxy-1-methyl-3-(1H-1,2,4-triazol-1-yl)propyl]-2-(thiazol-2-yl)imidazo[1,2-c]pyrimidin-5-one]

melting point: 148 to 149 °C
Structure (SMILES): CCOC(=O)c1cn2c(=O)n([C@H](C)[C@](O)(Cn3cncn3)c3ccc(F)cc3F)ccc2n1 [Compound 37, Ethyl-6-[(1R,2R)-2-(2,4-difluorophenyl)-2-hydroxy-1-methyl-3-(1H-1,2,4-triazol-1-yl)propyl]-5-oxo-imidazo[1,2-c]pyrimidine-2-carboxylate]

Structure (SMILES): C[C@@H](n1ncc2cc(-c3ccccc3)cn2c1=O)[C@](O)(Cn1cncn1)c1ccc(F)cc1F [Compound 47, 3-[(1R,2R)-2-(2,4-Difluorophenyl)-2-hydroxy-1-methyl-3-(1,2,4-triazol-1-yl)propyl]-7-phenyl-3H-pyrrolo[1,2-d][1,2,4]triazin-4-one]
melting point: 146 to 147 °C
MIC [2]: 64.8 ± 7.46 µg/mL (≈ 140 µM)
MIC [3]: 41.3 ± 8.61 µg/mL (≈ 89.4 µM)
MIC [4]: 48.4 ± 7.95 µg/mL (≈ 105 µM)
MIC [5]: 54.7 ± 12.1 µg/mL (≈ 118 µM)
MIC [9]: 0.014 ± 0.002 µg/mL (≈ 0.0303 µM)
fold more active than voriconazole against CAAL117 [9]: 100 fold
MIC [10]: 0.013 ± 0.001 µg/mL (≈ 0.0281 µM)
MIC [11]: 0.008 ± 0.005 µg/mL (≈ 0.0173 µM)
MIC [17]: 0.016 ± 0.001 µg/mL (≈ 0.0346 µM)
MIC [12]: 0.014 µg/mL (≈ 0.0303 µM)
MIC [6]: 58.4 ± 15.7 µg/mL (≈ 126 µM)
MIC [7]: < 1 ng/mL
MIC [8]: 44.1 ± 7.76 µg/mL (≈ 95.3 µM)

melting point: 132 to 133 °C
Structure (SMILES): C[C@@H](n1ccc2nc(C#N)cn2c1=O)[C@](O)(Cn1cncn1)c1ccc(F)cc1F [Compound 38, 6-[(1R,2R)-2-(2,4-Difluorophenyl)-2-hydroxy-1-methyl-3-(1H-1,2,4-triazol-1-yl)propyl]-5-oxo-imidazo[1,2-c]pyrimidine-2-carbonitrile]

melting point: 161 to 162 °C
Structure (SMILES): C[C@@H](n1ccc2nc(-c3ccc(Br)cc3)cn2c1=O)[C@](O)(Cn1cncn1)c1ccc(F)cc1F [Compound 32, 6-[(1R,2R)-2-(2,4-Difluorophenyl)-2-hydroxy-1-methyl-3-(1H-1,2,4-triazol-1-yl)propyl]-2-(4-bromophenyl)imidazo[1,2-c]pyrimidin-5-one]

Structure (SMILES): N=C(N)c1ccc(OCCCCCOc2ccc(C(=N)N)cc2)cc1 [Pentamidine, reference compound]
IC50 [1]: 0.34 ± 0.03 µM
